Source: patent US20240287047A1, “PESTICIDALLY ACTIVE DIAZINE-AMIDE COMPOUNDS” (SYNGENTA CROP PROTECTION AG, priority 2021, published 2024)

Experiments:
Format in all cases: in vivo
Spodoptera littoralis = experiment: Example B5: Spodoptera littoralis (Egyptian cotton leaf worm), cotton leaf discs, L1 larvae; details: foliar, 72 h, application rate of 200 ppm, 3 days after infestation, read-out: control in at least one of the three categories (mortality, anti-feedant effect, or growth inhibition)
Experimental: Cotton leaf discs were placed onto agar in 24-well microtiter plates and sprayed with aqueous test solutions prepared from 10,000 ppm DMSO stock solutions. After drying the leaf discs were infested with five L1 larvae. The samples were assessed for mortality, anti-feeding effect, and growth inhibition in comparison to untreated samples 3 days after infestation. Control of Spodoptera littoralis by a test sample is given when at least one of the categories mortality, anti-feedant effect, and growth inhibition is higher than the untreated sample.

Chilo suppressalis = experiment: Example B1: Chilo suppressalis (striped rice stemborer), artificial diet, L2 larvae; details: 144 h, application rate of 200 ppm, 6 days after infestation, read-out: control in at least one of the three categories (mortality, anti-feedant effect, or growth inhibition)
Experimental: 24-well microtiter plates with artificial diet were treated with aqueous test solutions prepared from 10,000 ppm DMSO stock solutions by pipetting. After drying, the plates were infested with L2 larvae (6-8 per well). The samples were assessed for mortality, anti-feeding effect, and growth inhibition in comparison to untreated samples 6 days after infestation. Control of Chilo suppressalis by a test sample is given when at least one of the categories mortality, anti-feedant effect, and growth inhibition is higher than the untreated sample.

Diabrotica balteata = experiment: Example B2: Diabrotica balteata (corn root worm), maize sprouts, L2 larvae; details: for percent control (mortality or growth inhibition) at 200 ppm: Diabrotica balteata, 96 h, application rate of 200 ppm, 4 days after infestation, read-out: control in at least one of the two categories (mortality or growth inhibition); for mortality at 50 ppm: Concentration 50 ppm, Diabrotica balteata (Example B32)
Experimental: Maize sprouts placed onto an agar layer in 24-well microtiter plates were treated with aqueous test solutions prepared from 10,000 ppm DMSO stock solutions by spraying. After drying, the plates were infested with L2 larvae (6 to 10 per well). The samples were assessed for mortality and growth inhibition in comparison to untreated samples 4 days after infestation.

Plutella xylostella = experiment: Example B4: Plutella xylostella (diamond back moth), artificial diet, eggs; details: for percent control (mortality or growth inhibition) at 200 ppm: Plutella xylostella, 192 h, application rate of 200 ppm, 8 days after infestation, read-out: control in at least one of the two categories (mortality or growth inhibition); for mortality at 50 ppm: Concentration 50 ppm, Plutella xylostella (Example B4)
Experimental: 24-well microtiter plates with artificial diet were treated with aqueous test solutions prepared from 10′000 ppm DMSO stock solutions by pipetting. After drying, Plutella eggs were pipetted through a plastic stencil onto a gel blotting paper and the plate was closed with it. The samples were assessed for mortality and growth inhibition in comparison to untreated samples 8 days after infestation.

SMILES	percent control (mortality, anti-feedant effect or growth inhibition) at 200 ppm (Spodoptera littoralis) [%]	percent control (mortality, anti-feedant effect or growth inhibition) at 200 ppm (Chilo suppressalis) [%]	percent control (mortality or growth inhibition) at 200 ppm (Diabrotica balteata) [%]	percent control (mortality or growth inhibition) at 200 ppm (Plutella xylostella) [%]	mortality at 50 ppm (Plutella xylostella) [%]	mortality at 50 ppm (Diabrotica balteata) [%]
C[C@H](NC(=O)c1cc(I)cc(C(F)(F)F)c1)c1nccnc1-c1cnccn1 [Compound E4, 3-iodo-N-[(1S)-1-(3-pyrazin-2-ylpyrazin-2-yl)ethyl]-5-(trifluoromethyl)benzamide]	≥ 80	≥ 80	≥ 80	≥ 80	–	–
C[C@H](NC(=O)c1cc(I)cc(I)c1)c1nccnc1-c1cnccn1 [Compound E5, 3,5-diiodo-N-[(1S)-1-(3-pyrazin-2-ylpyrazin-2-yl)ethyl]benzamide]	≥ 80	–	≥ 80	≥ 80	–	–
C[C@H](NC(=O)c1cc(Br)cc(Br)c1)c1nccnc1-c1cnccn1 [Compound E6, 3,5-dibromo-N-[(1S)-1-(3-pyrazin-2-ylpyrazin-2-yl)ethyl]benzamide]	≥ 80	–	≥ 80	≥ 80	–	–
C[C@H](NC(=O)c1cc(C(F)F)cc(C(F)(F)F)c1)c1nccnc1-c1cnccn1 [Compound E8, 3-(difluoromethyl)-N-[(1S)-1-(3-pyrazin-2-ylpyrazin-2-yl)ethyl]-5-(trifluoromethyl)benzamide]	≥ 80	≥ 80	≥ 80	≥ 80	–	–
C[C@@H](c1nccnc1-c1cnccn1)N(C)C(=O)c1cc(I)cc(C(F)(F)F)c1 [Compound E9, 3-iodo-N-methyl-N-[(1S)-1-(3-pyrazin-2-ylpyrazin-2-yl)ethyl]-5-(trifluoromethyl)benzamide]	≥ 80	–	≥ 80	–	–	–
C[C@@H](c1nccnc1-c1cnccn1)N(C)C(=O)c1cc(I)cc(I)c1 [Compound E10, 3,5-diiodo-N-methyl-N-[(1S)-1-(3-pyrazin-2-ylpyrazin-2-yl)ethyl]benzamide]	≥ 80	–	≥ 80	–	–	–
C[C@@H](c1nccnc1-c1cnccn1)N(C)C(=O)c1cc(C(F)F)cc(C(F)(F)F)c1 [Compound E13, 3-(difluoromethyl)-N-methyl-N-[(1S)-1-(3-pyrazin-2-ylpyrazin-2-yl)ethyl]-5-(trifluoromethyl)benzamide]	≥ 80	–	≥ 80	–	–	–
CC(NC(=O)c1cc(C(F)(F)F)cc(C(F)(F)F)c1)c1nccnc1-c1cnccn1 (centres unmarked) [Compound P1, N-[1-(3-pyrazin-2-ylpyrazin-2-yl)ethyl]-3,5-bis (trifluoromethyl)benzamide]	≥ 80	≥ 80	≥ 80	≥ 80	–	–
CC(NC(=O)c1cc(Br)nc(C2(C#N)CC2)c1)c1nccnc1-c1cnccn1 (centres unmarked) [Compound P3, 2-bromo-6-(1-cyanocyclopropyl)-N-[1-(3-pyrazin-2-ylpyrazin-2-yl)ethyl]pyridine-4-carboxamide]	≥ 80	≥ 80	≥ 80	≥ 80	–	–
CC(NC(=O)c1cc(C(F)(F)F)nc(C2(C#N)CC2)c1)c1nccnc1-c1cnccn1 (centres unmarked) [Compound P4]	≥ 80	≥ 80	≥ 80	≥ 80	–	–
CC(NC(=O)c1cc(Cl)cc(C(F)(F)F)c1)c1nccnc1-c1cnccn1 (centres unmarked) [Compound P6, 3-chloro-N-[1-(3-pyrazin-2-ylpyrazin-2-yl)ethyl]-5-(trifluoromethyl)benzamide]	≥ 80	≥ 80	–	≥ 80	100	–
CC(NC(=O)c1cc(Cl)cc(OC(F)(F)F)c1)c1nccnc1-c1cnccn1 (centres unmarked) [Compound P9, 3-chloro-N-[1-(3-pyrazin-2-ylpyrazin-2-yl)ethyl]-5-(trifluoromethoxy)benzamide]	–	≥ 80	≥ 80	≥ 80	–	–
CC(NC(=O)c1cc(Br)cc(Br)c1)c1nccnc1-c1cnccn1 (centres unmarked) [Compound P15, 3,5-dibromo-N-[1-(3-pyrazin-2-ylpyrazin-2-yl)ethyl]benzamide]	–	–	≥ 80	≥ 80	–	–
CC(NC(=O)c1cc(C2CC2)cc(C(F)(F)F)c1)c1nccnc1-c1cnccn1 (centres unmarked) [Compound P19, 3-cyclopropyl-N-[1-(3-pyrazin-2-ylpyrazin-2-yl)ethyl]-5-(trifluoromethyl)benzamide]	–	≥ 80	≥ 80	≥ 80	100	–
CC(NC(=O)c1cc(C(F)(F)F)cc(S(=O)(=O)C(F)(F)F)c1)c1nccnc1-c1cnccn1 (centres unmarked) [Compound P22, N-[1-(3-pyrazin-2-ylpyrazin-2-yl)ethyl]-3-(trifluoromethyl)-5-(trifluoromethylsulfonyl)benzamide]	–	≥ 80	–	≥ 80	–	–
CC(NC(=O)c1cc(I)cc(C(F)(F)F)c1)c1nccnc1-c1cnccn1 (centres unmarked) [Compound P23, 3-iodo-N-[1-(3-pyrazin-2-ylpyrazin-2-yl)ethyl]-5-(trifluoromethyl)benzamide]	≥ 80	–	≥ 80	≥ 80	–	–
CC(NC(=O)c1cc(Cl)cc(SC(F)(F)F)c1)c1nccnc1-c1cnccn1 (centres unmarked) [Compound P28, 3-chloro-N-[1-(3-pyrazin-2-ylpyrazin-2-yl)ethyl]-5-(trifluoromethylsulfanyl)benzamide]	≥ 80	–	≥ 80	≥ 80	–	–
CC(c1nccnc1-c1cnccn1)N(C)C(=O)c1cc(Cl)cc(C(F)(F)F)c1 (centres unmarked) [Compound P30, 3-chloro-N-methyl-N-[1-(3-pyrazin-2-ylpyrazin-2-yl)ethyl]-5-(trifluoromethyl)benzamide]	–	≥ 80	≥ 80	≥ 80	–	–
CC(NC(=O)c1cc(Cl)cc(S(=O)(=O)C(F)(F)F)c1)c1nccnc1-c1cnccn1 (centres unmarked) [Compound P33, 3-chloro-N-[1-(3-pyrazin-2-ylpyrazin-2-yl)ethyl]-5-(trifluoromethylsulfonyl)benzamide]	–	≥ 80	–	≥ 80	–	–
CC(NC(=O)c1cc(Br)cc(Br)c1)c1nccnc1-c1cnc(Cl)cn1 (centres unmarked) [Compound P36, 3,5-dibromo-N-[1-[3-(5-chloropyrazin-2-yl)pyrazin-2-yl]ethyl]benzamide]	≥ 80	–	≥ 80	≥ 80	–	–
CC(NC(=O)c1cc(C(F)(F)F)cc(S(C)(=O)=O)c1)c1nccnc1-c1cnc(C#N)cn1 (centres unmarked) [Compound P39, N-[1-[3-(5-cyanopyrazin-2-yl)pyrazin-2-yl]ethyl]-3-methylsulfonyl-5-(trifluoromethyl)benzamide]	≥ 80	≥ 80	–	≥ 80	–	–
CC(NC(=O)c1cc(Cl)cc(C(F)(F)F)c1)c1nccnc1-c1ccccn1 (centres unmarked) [Example 1 of WO 2021/068179, reference compound]	–	–	–	–	0	–
CC(NC(=O)c1cc(C(F)F)cc(C(F)(F)F)c1)c1nccnc1-c1ncccn1 (centres unmarked) [P22 of WO 2020/070049, reference compound]	–	–	–	–	–	80
CC(NC(=O)c1cc(C(F)(F)F)cc(C2(C#N)CC2)c1)c1nccnc1-c1ncccn1 (centres unmarked) [P25 of WO 2020/201398, reference compound]	–	–	–	–	–	50
CC(NC(=O)c1cc(C2CC2)cc(C(F)(F)F)c1)c1nccnc1-c1ccccn1 (centres unmarked) [P33 of WO 2020/201398, reference compound]	–	–	–	–	50	–
